Source: paper PMC7840129, “Structural basis for heme-dependent NCoR binding to the transcriptional repressor REV-ERBβ” (Science Advances, 2021)

Molecular target: T1, Apo REV-ERBβ LBD (Homo sapiens, UniProt Q14995)
T1 construct: The human REV-ERBβ LBD (residues 381 to 579) was previously cloned; 6xHis with 3C protease cleavage site (N, cleaved yes); made in house; host or cells: E. coli BL21(DE3)
T1 sequence (Q14995 381-579): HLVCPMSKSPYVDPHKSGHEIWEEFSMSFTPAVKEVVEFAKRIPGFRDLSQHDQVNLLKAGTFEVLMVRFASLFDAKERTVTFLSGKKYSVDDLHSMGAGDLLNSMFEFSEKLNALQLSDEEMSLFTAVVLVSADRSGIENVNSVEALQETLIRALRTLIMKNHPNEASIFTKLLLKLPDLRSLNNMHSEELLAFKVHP
Test: ITC, NCoR ID peptides with apo REV-ERBβ LBD
Type: binding
Excerpt: The human REV-ERBβ LBD (residues 381 to 579) was previously cloned into the pET46 vector ([18]). The mouse NCoR RID (residues 1942 to 2208 in the X50 splice variant), which has 87% sequence identity to human NCoR RID (100% sequence identity in the ID motifs), was previously cloned into the pET32 vector ([29]). NCoR RID mutants were generated by site-directed mutagenesis: The ID1 CoRNR box motif was mutated from […] to […] (ΔID1 and ΔID1ΔID2), and the ID2 CoRNR box motif was mutated from LEDIIRKAL to TEDTTRKAL (ΔID2 and ΔID1ΔID2), as these mutations were previously reported to disrupt CoRNR box binding ([10], [30]). Heme (Sigma-Aldrich, no. 51280) was prepared either as a 1 mM stock in dimethyl sulfoxide (DMSO) stored at 4°C or 50 mM stock in 0.2 M NaOH (solutions prepared in 0.2 M NaOH were always made fresh immediately before the experiment), where indicated. […] Human embryonic kidney (HEK) 293T cells (American Type Culture Collection, no. CRL-11268) were cultured in Dulbecco’s modified eagle medium (DMEM) supplemented with 10% fetal bovine serum, 2 mM L-glutamine, and 1% penicillin-streptomycin at 37°C and 5% CO2 under standard culture conditions. The pcDNA3.1^+ expression vector containing full-length human REV-ERBβ ([31]) and the pGL3-Bmal1-luciferase construct containing the Bmal1 promoter (−816 to +99 of the mouse Bmal1 promoter region) were used in HEK293T cell transfections. Site-directed mutagenesis was performed to mutate the proximal RORE (pRORE mutant), distal RORE (dRORE mutant), or both (p/dRORE mutant) in the pGL3-Bmal1-luciferase construct based on a previous study ([6]) where the ROREs were mutated to disrupt REV-ERBα activity.
Human REV-ERBβ LBD was expressed in BL21(DE3) Escherichia coli cells with an N-terminal hexahistidine (6xHis) tag separated by a 3C protease cleavage site. Expression was performed using auto-induction media: Cells were grown at 37°C for 5 hours, 30°C for 1 hour, and 18°C for 16 hours before harvesting by centrifugation. Pellets were resuspended in potassium phosphate lysis buffer [40 mM potassium phosphate (pH 7.4), 500 mM KCl, 15 mM imidazole, and 1 mM dithiothreitol (DTT)] supplemented with leupeptin, pepstatin A, lysozyme, and deoxyribonuclease (DNase) I and sonicated on ice. […] A 5-ml aliquot of 6xHis-tagged protein was purified by size exclusion chromatography using a Superdex 75 column equilibrated in time-resolved fluorescence energy transfer (TR-FRET) assay buffer [20 mM potassium phosphate (pH 7.4), 50 mM KCl, and 0.5 mM EDTA]; purified aliquots were stored at −80°C for TR-FRET assays. To cleave the 6xHis tag from the remaining protein, it was incubated overnight with 3C protease (generated in-house) via dialysis; then, protein was reloaded onto the HisTrap columns, and the flow-through was collected. Last, aggregates were removed by size exclusion chromatography using a Superdex 75 column and Hepes gel filtration buffer [20 mM Hepes (pH 7.4), 50 mM KCl, and 0.5 mM EDTA]. Greater than 95% purity was confirmed by SDS-PAGE. Protein was aliquoted and stored at −80°C.
ITC experiments were performed using a MicroCal iTC200. All experiments were solvent-matched and contained 0.1% DMSO (peptide vehicle) and 0.2% 0.2 M solution of NaOH (heme vehicle) final concentrations. NITPIC software ([37]) was used to calculate baselines and integrate curves and prepare experimental data for fitting in SEDPHAT, which was used to generate final binding affinity and thermodynamic parameter measurements ([38]).Final figures were exported to GUSSI for publication-quality figure preparation ([39]).
NCoR ID1 and NCoR ID2 peptides were prepared at 50 μM in assay buffer [20 mM Hepes (pH 7.4), 50 mM KCl, 0.5 mM EDTA, and 5 mM tris(2-carboxyethyl)phosphine (TCEP)], and REV-ERBβ LBD was prepared at 500 μM. […]

[1] = ID2 peptide, 25°C, fitted estimate due to low c value, 95% CI n.d.
[2] = ID1 peptide, pH 7.4, 25°C, 95% CI

| affinity of apo LBD for peptide (in words) | thermodynamic profile of peptide binding (in words), apo | TΔS [1] [kcal/mol] | ΔG, free energy of binding [1] [kcal/mol] | ΔH, enthalpy of binding [1] [kcal/mol] | ΔG, free energy of binding [2] [kcal/mol] | ΔH, enthalpy of binding [2] [kcal/mol] | TΔS (ID1 peptide, pH 7.4, T constant at 25°C, 95% CI) [kcal/mol] | Compound |
| --- | --- | --- | --- | --- | --- | --- | --- | --- |
| low affinity | enthalpically driven and exothermic | -4.2 | -5.6 | -9.7 | – | – | – | CC[C@H](C)[C@H](NC(=O)[C@H](CC(=O)O)NC(=O)[C@H](CCC(=O)O)NC(=O)[C@H](CC(C)C)NC(=O)CNC(=O)[C@H](CC(C)C)NC(=O)[C@H](CC(N)=O)NC(=O)[C@H](CO)NC(=O)[C@H](C)NC(=O)[C@@H]1CCCN1C(=O)[C@H](CC(=O)O)NC(C)=O)C(=O)N[C@H](C(=O)N[C@@H](CCCNC(=N)N)C(=O)N[C@@H](CCCCN)C(=O)N[C@@H](C)C(=O)N[C@@H](CC(C)C)C(=O)N[C@@H](CCSC)C(=O)NCC(=O)N[C@@H](CO)C(=O)N[C@@H](Cc1ccccc1)C(=O)N[C@@H](CC(=O)O)C(=O)N[C@@H](CC(=O)O)C(=O)N[C@@H](CCCCN)C(N)=O)[C@@H](C)CC [NCoR ID2 peptide] |
| high affinity | enthalpically driven and exothermic | – | – | – | -8.6 | -7.7 | 0.88 | Ac-RTHRLITLADHICQIITQDFARN-NH2 [NCoR ID1 peptide] |
